# Measurements: patent publication US7081460B2, “Quinazoline and quinazoline-like compounds for the treatment of integrin-mediated disorders” (Ortho-McNeil Pharmaceutical, Inc., priority 2001, dated 2006)
# Assays:
# [1] = target: T1, Human αvβ3 (Homo sapiens, UniProt P05106+P06756); assay: In vitro solid phase purified αvβ3 binding assay (vitronectin/αvβ3); conditions: isolated human αvβ3, 5 nM vitronectin; read-out: αvβ3 Binding IC50
# T1 construct: purchased Chemicon International Inc., Temecula, Calif
# Summary of the method: (§1)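 αvβ3 (1 μg/ml) immobilised in Tris buffer with Ca2+/Mg2+/Mn2+, compounds added 5 min before 5 nM vitronectin, 3 h at 37 °C; bound vitronectin detected by anti-vitronectin antibody/peroxidase ELISA at 490 nm. GPIIb/IIIa coated overnight at 4 °C, biotinylated fibrinogen with compounds 2–4 h RT in modified Tyrodes buffer, avidin-HRP/o-phenylenediamine read at 490 nm.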
# [2] = target: GPIIb/IIIa (Homo sapiens, UniProt P05106+P08514); assay: In vitro solid phase purified glycoprotein IIb/IIIa binding assay (biotinylated fibrinogen); conditions: RGD-affinity purified GPIIb/IIIa, biotinylated fibrinogen; read-out: GPIIb/IIIa Binding IC50
# Summary of the method: as §1
# GPIIb/IIIa, sequence (P08514 32-887 limits assumed): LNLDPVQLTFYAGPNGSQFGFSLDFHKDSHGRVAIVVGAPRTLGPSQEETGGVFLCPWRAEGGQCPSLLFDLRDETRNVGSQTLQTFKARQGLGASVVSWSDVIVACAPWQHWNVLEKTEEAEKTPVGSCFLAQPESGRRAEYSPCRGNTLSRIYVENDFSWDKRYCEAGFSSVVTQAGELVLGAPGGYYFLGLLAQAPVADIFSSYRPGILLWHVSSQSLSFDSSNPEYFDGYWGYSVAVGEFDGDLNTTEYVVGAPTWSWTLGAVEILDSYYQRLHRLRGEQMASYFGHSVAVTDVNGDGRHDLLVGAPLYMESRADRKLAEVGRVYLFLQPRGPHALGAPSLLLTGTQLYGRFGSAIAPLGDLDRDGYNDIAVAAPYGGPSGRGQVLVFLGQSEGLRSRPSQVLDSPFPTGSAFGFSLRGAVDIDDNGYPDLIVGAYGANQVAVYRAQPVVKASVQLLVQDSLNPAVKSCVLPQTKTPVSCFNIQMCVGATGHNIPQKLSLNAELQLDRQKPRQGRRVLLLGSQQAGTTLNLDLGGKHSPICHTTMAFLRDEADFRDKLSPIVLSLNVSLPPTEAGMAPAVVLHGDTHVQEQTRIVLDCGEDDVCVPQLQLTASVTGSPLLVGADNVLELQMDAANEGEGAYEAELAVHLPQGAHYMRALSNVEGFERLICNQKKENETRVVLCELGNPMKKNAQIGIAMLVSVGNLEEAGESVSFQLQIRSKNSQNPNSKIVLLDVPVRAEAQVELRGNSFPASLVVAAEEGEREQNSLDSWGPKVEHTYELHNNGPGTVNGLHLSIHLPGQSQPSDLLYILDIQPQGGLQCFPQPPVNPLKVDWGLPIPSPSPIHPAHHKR
# GPIIb/IIIa, sequence (P08514 891-1039 partner limits assumed): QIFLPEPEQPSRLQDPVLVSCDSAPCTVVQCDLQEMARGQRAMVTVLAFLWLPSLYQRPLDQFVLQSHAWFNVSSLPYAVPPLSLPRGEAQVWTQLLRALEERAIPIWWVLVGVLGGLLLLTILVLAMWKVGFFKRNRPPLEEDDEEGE
# GPIIb/IIIa, sequence (P05106 27-788): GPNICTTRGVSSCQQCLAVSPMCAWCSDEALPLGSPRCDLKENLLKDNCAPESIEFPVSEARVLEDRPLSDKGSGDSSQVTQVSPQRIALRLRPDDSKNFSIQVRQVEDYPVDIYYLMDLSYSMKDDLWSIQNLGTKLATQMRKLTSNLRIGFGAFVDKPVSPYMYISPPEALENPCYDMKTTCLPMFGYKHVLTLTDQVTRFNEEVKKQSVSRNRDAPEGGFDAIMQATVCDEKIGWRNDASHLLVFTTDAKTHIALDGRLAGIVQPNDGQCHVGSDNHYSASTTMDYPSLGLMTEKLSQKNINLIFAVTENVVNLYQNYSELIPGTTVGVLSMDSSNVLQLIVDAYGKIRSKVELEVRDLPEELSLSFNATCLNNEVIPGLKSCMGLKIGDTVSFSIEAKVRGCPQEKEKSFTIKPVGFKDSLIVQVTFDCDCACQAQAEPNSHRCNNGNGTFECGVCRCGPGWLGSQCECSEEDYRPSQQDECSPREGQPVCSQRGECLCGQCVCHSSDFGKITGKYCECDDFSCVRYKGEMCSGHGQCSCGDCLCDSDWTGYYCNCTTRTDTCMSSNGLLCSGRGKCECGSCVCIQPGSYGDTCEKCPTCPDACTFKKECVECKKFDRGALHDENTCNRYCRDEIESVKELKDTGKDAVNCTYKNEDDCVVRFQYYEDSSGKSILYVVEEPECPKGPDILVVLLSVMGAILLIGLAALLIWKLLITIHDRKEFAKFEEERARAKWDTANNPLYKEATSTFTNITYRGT
# T1 sequence (P06756 31-889 limits assumed): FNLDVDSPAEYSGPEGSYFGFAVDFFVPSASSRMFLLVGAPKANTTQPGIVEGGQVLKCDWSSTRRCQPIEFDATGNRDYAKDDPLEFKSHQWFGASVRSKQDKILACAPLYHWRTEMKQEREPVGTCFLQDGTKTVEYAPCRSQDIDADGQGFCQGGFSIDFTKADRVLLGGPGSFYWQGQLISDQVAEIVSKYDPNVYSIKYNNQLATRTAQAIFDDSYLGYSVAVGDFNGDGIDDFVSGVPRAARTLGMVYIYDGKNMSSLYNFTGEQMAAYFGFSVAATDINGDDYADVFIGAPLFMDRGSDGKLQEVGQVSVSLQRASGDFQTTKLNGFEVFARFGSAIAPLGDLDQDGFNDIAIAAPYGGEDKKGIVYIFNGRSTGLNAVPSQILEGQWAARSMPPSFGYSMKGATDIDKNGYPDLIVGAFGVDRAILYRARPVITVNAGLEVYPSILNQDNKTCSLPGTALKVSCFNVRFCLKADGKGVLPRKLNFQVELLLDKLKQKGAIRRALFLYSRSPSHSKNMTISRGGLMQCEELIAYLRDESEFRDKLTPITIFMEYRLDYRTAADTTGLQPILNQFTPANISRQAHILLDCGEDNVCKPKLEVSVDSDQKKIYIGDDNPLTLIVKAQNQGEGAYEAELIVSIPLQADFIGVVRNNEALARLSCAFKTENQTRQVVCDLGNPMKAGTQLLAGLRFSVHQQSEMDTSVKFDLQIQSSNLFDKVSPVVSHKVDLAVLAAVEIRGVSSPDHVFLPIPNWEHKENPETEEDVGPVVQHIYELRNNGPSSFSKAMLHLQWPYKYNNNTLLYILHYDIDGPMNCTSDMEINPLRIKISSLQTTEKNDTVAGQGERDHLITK
# T1 sequence (P06756 891-1048 partner limits assumed): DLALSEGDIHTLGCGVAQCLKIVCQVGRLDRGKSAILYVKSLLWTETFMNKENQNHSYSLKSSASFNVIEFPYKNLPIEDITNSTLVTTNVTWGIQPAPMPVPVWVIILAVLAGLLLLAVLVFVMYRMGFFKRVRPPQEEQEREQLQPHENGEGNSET
# T1 sequence (P05106 27-788): as the sequence (P05106 27-788) above
Compound,IC50 [1] [nM],IC50 [2] [nM]
"Cc1cc(C)c(S(=O)(=O)N[C@@H](Cc2nc3ccc(/C=C/CNC(=O)NCc4ccccc4)cc3c(=O)[nH]2)C(=O)O)c(C)c1 [Compound 62, (αS)-3,4-dihydro-4-oxo-6-[(1E)-3-[[[(phenylmethyl)amino]carbonyl]amino]-1-propenyl]-α-[[(2,4,6-trimethylphenyl)sulfonyl]amino]-2-quinazolinepropanoic acid]",79,4100
"COc1ccc(S(=O)(=O)N[C@@H](Cc2nc3ccc(/C=C/CNC4=NCCCCCC4)cc3c(=O)[nH]2)C(=O)O)cc1OC [Compound 68, α-[[(3,4-dimethoxyphenyl)sulfonyl]amino]-6-[(1E)-3-[(3,4,5,6,7,8-hexahydro-2-azocinyl)amino]-1-propenyl]-(αS)-3,4-dihydro-4-oxo-2-quinazolinepropanoic acid]",440,230
"O=C(O)[C@H](Cc1nc2ccc(/C=C/CNC3=NCCN3)cc2c(=O)[nH]1)NS(=O)(=O)c1ccc(-c2ccccn2)s1 [Compound 6, 6-[(1E)-3-[(4,5-dihydro-1H-imidazol-2-yl)amino]-1-propenyl]-(αS)-3,4-dihydro-4-oxo-α-[[[5-(2-pyridinyl)-2-thienyl]sulfonyl]amino]-2-quinazolinepropanoic Acid]",5.3,41
"Cc1c(C)c(C)c(S(=O)(=O)N[C@@H](Cc2nc3ccc(/C=C/CNc4ccc(Cl)cn4)cc3c(=O)[nH]2)C(=O)O)c(C)c1C [Compound 39, 6-[(1E)-3-[(5-chloro-2-pyridinyl)amino]-1-propenyl]-(αS)-3,4-dihydro-4-oxo-α-[[(2,3,4,5,6-pentamethylphenyl)sulfonyl]amino]-2-quinazolinepropanoic acid]",1800,1800
"Cc1c(C)c(C)c(S(=O)(=O)N[C@@H](Cc2nc3ccc(/C=C/CNC(=O)NC4CCCCC4)cc3c(=O)[nH]2)C(=O)O)c(C)c1C [Compound 75, 6-[(1E)-3-[[(cyclohexylamino)carbonyl]amino]-1-propenyl]-(αS)-3,4-dihydro-4-oxo-α-[[(2,3,4,5,6-pentamethylphenyl)sulfonyl]amino]-2-quinazolinepropanoic acid]",620,4900
"Cn1c(C(CC(=O)O)c2ccccc2)nc2ccc(C=CCNC3=NCCN3)cc2c1=O [Compound 78, (βR,S)-3,4-dihydro-3-methyl-4-oxo-β-phenyl-6-[(1E)-3-[(4,5-dihydro-1H-imidazol-2-yl)amino]-1-propenyl]-2-quinazolinepropanoic acid]",5400,55000
"Cc1noc(C)c1S(=O)(=O)N[C@@H](Cc1nc2ccc(/C=C/CNc3ccccn3)cc2c(=O)[nH]1)C(=O)O [Compound 37, α-[[(3,5-dimethyl-4-isoxazolyl)sulfonyl]amino]-(αS)-3,4-dihydro-4-oxo-6-[(1E)-3-(2-pyridinylamino)-1-propenyl]-2-quinazolinepropanoic acid]",54,700
"Cc1c(C)c(C)c(S(=O)(=O)N[C@@H](Cc2nc3ccc(/C=C/CNC(=N)c4cccnc4)cc3c(=O)[nH]2)C(=O)O)c(C)c1C [Compound 47, (αS)-3,4-dihydro-6-[(1E)-3-[(imino-3-pyridinylmethyl)amino]-1-propenyl]-4-oxo-α-[[(2,3,4,5,6-pentamethylphenyl)sulfonyl]amino]-2-quinazolinepropanoic acid]",132,96
"CC(C)(C)OC(=O)N[C@@H](Cc1nc2ccc(/C=C/CNC3=NCCCCC3)cc2c(=O)[nH]1)C(=O)O [Compound 71, α-[[(1,1-dimethylethoxy)carbonyl]amino]-(αS)-3,4-dihydro-4-oxo-6-[(1E)-3-[(3,4,5,6-tetrahydro-2H-azepin-7-yl)amino]-1-propenyl]-2-quinazolinepropanoic acid]",960,12000
"COc1ccc(S(=O)(=O)N[C@@H](Cc2nc3ccc(/C=C/CNc4cc(C)ccn4)cc3c(=O)[nH]2)C(=O)O)cc1OC [Compound 46, α-[[(3,4-dimethoxyphenyl)sulfonyl]amino]-(αS)-3,4-dihydro-6-[(1E)-3-[(4-methyl-2-pyridinyl)amino]-1-propenyl]-4-oxo-2-quinazolinepropanoic acid]",5.8,740
"Cc1c(C)c(C)c(S(=O)(=O)N[C@H](CC(=O)O)c2nc3ccc(/C=C/CNc4ccccn4)cc3c(=O)[nH]2)c(C)c1C [Compound 14, (βR)-3,4-dihydro-4-oxo-β-[[(2,3,4,5,6-pentamethylphenyl)sulfonyl]amino]-6-[(1E)-3-(2-pyridinylamino)-1-propenyl]-2-quinazolinepropanoic Acid]",25,1800
"Cc1c(C)c(C)c(S(=O)(=O)N[C@@H](Cc2nc3ccc(/C=C/CNc4ccccn4)cc3c(=O)[nH]2)C(=O)O)c(C)c1C [Compound 10, (αS)-3,4-dihydro-4-oxo-α-[[(2,3,4,5,6-pentamethylphenyl)sulfonyl]amino]-6-[(1E)-3-(2-pyridinylamino)-1-propenyl]-2-quinazolinepropanoic Acid]",6.1,640
"Cc1c(C)c(C)c(S(=O)(=O)N[C@@H](Cc2nc3ccc(/C=C/CNC(=O)NC4C[C@H]4c4ccccc4)cc3c(=O)[nH]2)C(=O)O)c(C)c1C (stereo partly drawn) [Compound 66, (αS)-3,4-dihydro-4-oxo-α-[[(2,3,4,5,6-pentamethylphenyl)sulfonyl]amino]-6-[(1E)-3-[[[[(2S)-2-phenylcyclopropyl]amino]carbonyl]amino]-1-propenyl]-2-quinazolinepropanoic acid]",210,780
"6-[(1E)-3-[(4,5-dihydro-1H-imidazol-2-yl)amino]-1-propenyl]-(αS)-3,4-dihydro-4-oxo-α-[[[(E)-2-phenylethenyl]sulfonyl]amino]-2-quinazolinepropanoic Acid [Compound 7]",7,330
"Cc1cc(C)c(S(=O)(=O)N[C@@H](Cc2nc3ccc(/C=C/CNC4=NCCN4)cc3c(=O)[nH]2)C(=O)O)c(C)c1 [Compound 3, 6-[(1E)-3-[(4,5-dihydro-1H-imidazol-2-yl)amino]-1-propenyl]-(αS)-3,4-dihydro-4-oxo-a-[[(2,4,6-trimethylphenyl)sulfonyl]amino]-2-quinazolinepropanoic Acid]",3.2,78
"O=C(O)[C@H](Cc1nc2ccc(/C=C/CNc3ccccn3)cc2c(=O)[nH]1)NS(=O)(=O)c1ccc(S(=O)(=O)c2ccccc2)s1 [Compound 28, (αS)-3,4-dihydro-4-oxo-α-[[[5-(phenylsulfonyl)-2-thienyl]sulfonyl]amino]-6-[(1E)-3-(2-pyridinylamino)-1-propenyl]-2-quinazolinepropanoic acid]",> 300,2200
"NC/C=C/c1ccc2nc(C[C@H](NC(=O)OCc3ccccc3)C(=O)O)[nH]c(=O)c2c1 [Compound 19, 6-[(1E)-3-amino-1-propenyl]-(αS)-3,4-dihydro-4-oxo-α-[[(phenylmethoxy)carbonyl]amino]-2-quinazolinepropanoic acid]",> 5000,450
"O=C(O)[C@H](Cc1nc2ccc(/C=C/CNc3ccccn3)cc2c(=O)[nH]1)NS(=O)(=O)c1ccc(C(F)(F)F)cc1 [Compound 25, (αS)-3,4-dihydro-4-oxo-6-[(1E)-3-(2-pyridinylamino)-1-propenyl]-α-[[[4-(trifluoromethyl)phenyl]sulfonyl]amino]-2-quinazolinepropanoic acid]",72,9600
"COC(=O)[C@H](Cc1nc2ccc(/C=C/CNC3=NCCN3)cc2c(=O)[nH]1)NS(=O)(=O)c1c(C)c(C)c(C)c(C)c1C [Compound 41, 6-[(1E)-3-[(4,5-dihydro-1H-imidazol-2-yl)amino]-1-propenyl]-(αS)-3,4-dihydro-4-oxo-α-[[(2,3,4,5,6-pentamethylphenyl)sulfonyl]amino]methyl ester 2-quinazolinepropanoic acid]",19,240
"Cc1c(C)c(C)c(S(=O)(=O)N[C@@H](Cc2nc3ccc(/C=C/CN4CCCC4=N)cc3c(=O)[nH]2)C(=O)O)c(C)c1C [Compound 27, (αS)-3,4-dihydro-6-[(1E)-3-(2-imino-1-pyrrolidinyl)-1-propenyl]-4-oxo-α-[[(2,3,4,5,6-pentamethylphenyl)sulfonyl]amino]-2-quinazolinepropanoic acid]",120,19
"Cc1c(C)c(C)c(S(=O)(=O)N[C@@H](Cc2nc3ccc(/C=C/CNc4nc5ccccc5c(=O)[nH]4)cc3c(=O)[nH]2)C(=O)O)c(C)c1C [Compound 61, 6-[(1E)-3-[(3,4-dihydro-4-oxo-2-quinazolinyl)amino]-1-propenyl]-(αS)-3,4-dihydro-4-oxo-α-[[(2,3,4,5,6-pentamethylphenyl)sulfonyl]amino]-2-quinazolinepropanoic acid]",69,12000
"6-[(1E)-4-[[(aminoiminomethyl)amino]oxy]-1-butenyl]-(αS)-3,4-dihydro-4-oxo-α-[[(2,3,4,5,6-pentamethylphenyl)sulfonyl]amino]-2-quinazolinepropanoic Acid [Compound 16]",268,36
"O=C(NC/C=C/c1ccc2nc(C[C@H](NS(=O)(=O)CCc3cccc4ccccc34)C(=O)O)[nH]c(=O)c2c1)NCc1ccccc1 [Compound 76, (αS)-3,4-dihydro-α-[[[2-(1-naphthalenyl)ethyl]sulfonyl]amino]-4-oxo-6-[(1E)-3-[[[(phenylmethyl)amino]carbonyl]amino]-1-propenyl]-2-quinazolinepropanoic acid]",> 500,45000
